Measured values: ChEMBL document CHEMBL1152998, “Structure-based virtual screening approach to identify novel classes of PTP1B inhibitors” (Eur J Med Chem, 2009)

The molecules below were run against T1, Tyrosine-protein phosphatase non-receptor type 1 (Homo sapiens, UniProt P18031) (assay: Inhibition of PTP1B by pNPP hydrolase assay).
T1 sequence (P18031 whole entry): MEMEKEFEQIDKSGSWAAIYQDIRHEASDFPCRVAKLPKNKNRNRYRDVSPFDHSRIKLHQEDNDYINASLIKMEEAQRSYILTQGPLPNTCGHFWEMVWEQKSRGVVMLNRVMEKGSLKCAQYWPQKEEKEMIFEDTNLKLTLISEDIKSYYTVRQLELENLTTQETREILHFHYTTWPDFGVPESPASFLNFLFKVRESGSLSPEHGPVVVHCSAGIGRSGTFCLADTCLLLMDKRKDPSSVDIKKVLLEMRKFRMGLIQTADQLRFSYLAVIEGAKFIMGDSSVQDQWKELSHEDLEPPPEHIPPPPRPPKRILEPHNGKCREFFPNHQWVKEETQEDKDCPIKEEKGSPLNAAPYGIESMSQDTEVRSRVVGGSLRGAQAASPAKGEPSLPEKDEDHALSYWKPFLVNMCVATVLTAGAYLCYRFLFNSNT
`O=C(O)c1cc(-c2ccc(/C=C3\NC(=O)N(c4ccccc4)C3=O)o2)ccc1Cl` showed an IC50 of 34 µM. Molecule `O=C(O)c1ccc(Nc2cc3ccccc3cc2NS(=O)(=O)c2ccc(F)cc2)cc1` has an IC50 of 41 µM. `N#C/C(=C\c1ccc(-c2ccccc2C(=O)O)o1)C(=O)Nc1ccc2ccccc2c1` showed an IC50 of 27 µM. For `O=C(O)c1cccc(-c2ccc(-c3nc4sc5c(c4c(=O)[nH]3)CCCC5)o2)c1`, the IC50 was 25 µM. With `O=C1NC(=O)/C(=C\c2ccc(OCc3ccc(F)cc3)c(Br)c2)S1` the IC50 was 11 µM. Work on `O=C1ON=C(c2ccccc2)/C1=C\c1ccccc1OCc1ccccc1Cl` yielded an IC50 of 22 µM. `CCOc1ccc(-c2csc(C(C#N)CNc3ccc4oc(=O)ccc4c3)n2)cc1` (centres undefined) showed an IC50 of 28 µM. For `O=C1NC(=O)N(c2ccccc2)C(=O)/C1=C\c1cn(Cc2cccc3ccccc23)c2ccccc12`, the IC50 was 12 µM. With `COc1cc(C)ccc1OCCn1cccc1/C=C1\C(=O)NC(=O)N(c2ccc(C)c(Cl)c2)C1=O` the IC50 was 35 µM.
